Reference: patent US20100029949A1, “Activator for Peroxisome Proliferator Activated Receptor” (priority 2005, published 2010)

What was measured:
Assay type in all cases: cell-based
PPAR α = biological target: T1, PPAR α (Homo sapiens, UniProt Q07869); experiment: GAL4-hPPAR α (LBD) luciferase reporter transactivation in CV-1 cells; conditions: test compound 10^−6 M, control GW-590735 10^−6 M = 100%
T1 construct: A receptor expression plasmid (pSG5-GAL4-hPPAR α or γ or δ (LBD)); expressed in transfected cells; host or cells: CV-1 cells (ATCC)
T1 sequence (Q07869 239-466 limits assumed): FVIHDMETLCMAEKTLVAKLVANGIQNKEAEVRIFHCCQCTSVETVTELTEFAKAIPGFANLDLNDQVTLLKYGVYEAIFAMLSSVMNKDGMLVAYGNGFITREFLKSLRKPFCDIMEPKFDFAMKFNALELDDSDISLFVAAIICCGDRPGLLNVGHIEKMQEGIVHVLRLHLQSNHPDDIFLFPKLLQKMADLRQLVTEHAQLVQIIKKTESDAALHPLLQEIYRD
Procedure: (§1) A receptor expression plasmid (pSG5-GAL4-hPPAR α or γ or δ (LBD)), a luciferase expression plasmid (pUC8-MH100x-4-TK-Luc) and β-galactosidase expression plasmid (pCMX-β-GAL) (Kliewer, S. A., et. al., (1992) Nature, 358:771-774) are transfected into CV-1 cells (ATCC). After gene transfer utilizing a lipofection reagent DMRIE-C or Lipofectamin 2000 (Invitrogen), it is incubated for 42 hours in the presence of the test compound. Then, the luciferase activity and β-GAL activity are measured on the soluble cells. The luciferase activity is calibrated by the β-GAL activity. A relative ligand activity is calculated for each of the PPAR α, γ and δ under the following conditions: a relative activity of PPAR α is calculated in consideration of a luciferase activity (assigned to 100%) of cells treated with the compound GW-590735 (PPARα-selective agonist); a relative activity of PPAR γ is calculated in consideration of a luciferase activity (assigned to 100%) cells treated with Rosiglitazone; and a relative activity of PPAR δ is calculated in consideration of a luciferase activity (assigned to 100%) of cells treated with GW-501516. See the below-described Example 4.
(§2) The PPARδ activating effects of test compounds (compounds of Examples) were measured by the following method: […]
(§3) After gene transfer utilizing a lipofection reagent DMRIE-C or Lipofectamin 2000 (Invitrogen), it is incubated for approx. 40 hours in the presence of the test compound. Then, the luciferase activity and β-GAL activity are measured on the soluble cells. […] A relative ligand activity is calculated for each of the PPAR α, γ and δ under the following conditions: a relative activity of PPAR α is calculated in consideration of a luciferase activity (assigned to 100%) of cells treated with GW-590735 (PPARα-selective agonist); a relative activity of […] is calculated in consideration of a luciferase activity (assigned to 100%) cells treated with Rosiglitazone; and a relative activity of PPARδ is calculated in consideration of a luciferase activity (assigned to 100%) of cells treated with GW-501516.

PPAR δ = biological target: T2, PPAR δ (Homo sapiens, UniProt Q03181); experiment: GAL4-hPPAR δ (LBD) luciferase reporter transactivation in CV-1 cells; conditions: test compound 10^−6 M, control GW-501516 10^−7 M = 100%
T2 construct: A receptor expression plasmid (pSG5-GAL4-hPPAR α or γ or δ (LBD)); expressed in transfected cells; host or cells: CV-1 cells (ATCC)
T2 sequence (Q03181 211-439 limits assumed): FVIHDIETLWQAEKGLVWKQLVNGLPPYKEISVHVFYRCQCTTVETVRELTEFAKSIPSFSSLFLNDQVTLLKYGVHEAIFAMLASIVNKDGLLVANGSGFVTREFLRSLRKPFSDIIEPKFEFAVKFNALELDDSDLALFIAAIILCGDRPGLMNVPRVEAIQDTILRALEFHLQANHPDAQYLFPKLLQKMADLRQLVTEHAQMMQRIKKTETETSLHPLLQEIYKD
Procedure: as §1, §2, §3

PPAR γ = biological target: T3, PPAR γ (Homo sapiens, UniProt P37231); experiment: GAL4-hPPAR γ (LBD) luciferase reporter transactivation in CV-1 cells; conditions: test compound 10^−6 M, control Rosiglitazone 10^−5 M = 100%
T3 construct: A receptor expression plasmid (pSG5-GAL4-hPPAR α or γ or δ (LBD)); expressed in transfected cells; host or cells: CV-1 cells (ATCC)
T3 sequence (P37231 238-503 limits assumed): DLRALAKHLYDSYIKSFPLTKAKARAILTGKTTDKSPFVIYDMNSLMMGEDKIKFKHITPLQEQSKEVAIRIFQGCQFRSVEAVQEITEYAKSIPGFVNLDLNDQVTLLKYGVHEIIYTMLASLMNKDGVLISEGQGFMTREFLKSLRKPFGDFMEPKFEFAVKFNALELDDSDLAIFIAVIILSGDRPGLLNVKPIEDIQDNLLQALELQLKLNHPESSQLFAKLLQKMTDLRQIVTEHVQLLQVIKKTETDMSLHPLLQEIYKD
Procedure: as §1, §2, §3

Row | PPAR α activity: relative value (%) of the test compound to 100% of the control compound (PPAR α) [%] | PPAR δ activity: relative value (%) of the test compound to 100% of the control compound (PPAR δ) [%] | PPAR γ activity: relative value (%) of the test compound to 100% of the control compound (PPAR γ) [%] | Structure (SMILES)
1 | 103.0 | 94.4 | 13.4 | Cc1cc2c(CCc3cc(-c4ccc(C(F)(F)F)cc4)nn3C(C)C)noc2cc1OCC(=O)O [Example 2, 3-[2-[1-Isopropyl-3-(4-trifluoromethylphenyl)-1H-pyrazol-5-yl]ethyl]-5-methylbenzisoxazol-6-yloxyacetic acid]
2 | 62.7 | 84.7 | 5.4 | Cc1cc2c(CCc3cc(-c4ccc(C(F)(F)F)cc4)nn3C(C)C)noc2cc1OC(C)(C)C(=O)O [Example 1, 2-[3-[2-[1-Isopropyl-3-(4-trifluoromethylphenyl)-1H-pyrazol-5-yl]ethyl]-5-methylbenzisoxazol-6-yloxy]-2-methylpropionic acid]
3 | 0.2 | 87.8 | 0.3 | Cc1cc2c(CCc3cn(-c4ccc(C(F)(F)F)cc4)nc3C(C)C)noc2cc1OC(C)(C)C(=O)O [Example 3, 2-[3-[2-[3-Isopropyl-1-(4-trifluoromethylphenyl)-1H-pyrazol-4-yl]ethyl]-5-methylbenzisoxazol-6-yloxy]-2-methylpropionic acid]
